Several values for one entry are separate records, joined by “and”; a condition that tells them apart may be missing. Equal values may be shown once.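 All cell lines were grown in 96-well plates and treated with compound for 48 hours. Abbreviation: GI50, concentration required for 50% inhibition of growth. TGI denotes the concentration required for complete inhibition of growth.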 Some results are limits rather than exact numbers.

Test in all cases: inhibition of tumour cell growth, NCI panel, 48 h
For test [1], the system named is MALME-3M melanoma.
Test [2] relates to HCT-116 colon.
Test [3] relates to NCI-H522 lung.
Test [4] deals with PC-3 prostate.
Test [5] has as its system SF-268 CNS.
Test [6] concerns SK-OV-3 ovarian.
The test system of test [7] is HCC-2998 colon.
The test system of test [8] is DU-145 prostate.
Test [9] relates to HOP-62 NSCLC.
The subject of test [10] is SK-MEL-5 melanoma.

As to `COc1cc(C(=O)c2cnc(-c3cccc4[nH]ccc34)[nH]2)cc(OC)c1OC`, the GI50 is 19.6 µM in test [1]; 0.0673 µM and < 0.01 µM in test [2]; 0.0369 µM in [3]; 0.0457 µM and < 0.01 µM in test [4]; 0.0542 µM and < 0.01 µM in test [6]; 0.0996 µM and < 0.01 µM in test [8]. Further, the GI50 was less than 0.01 µM in test [9]; 0.0462 µM and < 0.01 µM in test [10]. Besides, the TGI is 83 µM in test [1]; more than 100 µM in test [2]; more than 100 µM in [4]; more than 100 µM in test [5]; less than 0.01 µM in [6]; 59.3 µM in test [7]. Further, the TGI in test [8] was more than 100 µM; in [9] it was 20 µM; in [10], 0.431 µM and 0.275 µM.

Regarding `CCCCCCCCCCCCOC1C(CNC(=O)C2OC3OC(C)(C)OC3C2NC(=O)CN2CCN(c3ccc(OC)cc3)CC2)OC2OC(C)(C)OC21` (centres undefined), the GI50 in [1] was 11.9 µM; in [2], 3.26 µM; in test [3], 4.92 µM; in test [4] it was 2.82 µM; in test [5], 3.12 µM; in test [6] it was 5.87 µM. In addition, the GI50 is 3.4 µM in test [7], 4.56 µM in test [8], 5.07 µM in test [9] and 4.39 µM in [10]. Besides, the TGI in test [1] came out at 24.1 µM; in test [2], 18.5 µM; in test [3], 17.4 µM; in test [4], 9.79 µM; in test [5], 11.5 µM; in test [6], 17.7 µM. The TGI in [7] was found to be 11 µM; in [8], 15.6 µM; in test [9], 20.5 µM; in test [10], 16.1 µM.

With `COC(=O)c1oc2c(C(=O)/C=C/c3ccc(OC)cc3)c(OCCN(C)C)ccc2c1C`, the GI50 is 11.4 µM in test [1]; 4.64 µM in [2]; 5.39 µM in [3]; 8.43 µM in test [4]; 5.63 µM in [5]; 5.14 µM in test [6]. For the same compound, the GI50 was 10.2 µM in test [7], 2.82 µM in test [8], 20.5 µM in test [9] and 10.6 µM in test [10]. The TGI in test [1] was 27.8 µM; in [2], 19.7 µM; in [3], 20.2 µM; in test [4], 21.7 µM; in [5] it was 20.5 µM; in test [6] it was 17.8 µM. Besides, the TGI in [7] was 24.6 µM; in test [8] it was 10.7 µM; in test [9], 38.7 µM; in test [10] it was 22.4 µM.

Take `CCOc1ccn(-c2ccc(F)cc2)c(=O)c1C(=O)Nc1ccc(Oc2ccnc(N)c2Cl)c(F)c1`: the GI50 in test [1] is 7.72 µM; in [2], 5.35 µM; in test [3], 12.3 µM; in test [4], 9.02 µM; in test [5], 10.9 µM; in test [6], 11.7 µM. The GI50 was 38.5 µM in [7], 21.1 µM in test [8], 13.2 µM in [9] and 9.99 µM in [10]. Moreover, the TGI in test [1] was 46.4 µM; in [2], 21.8 µM; in [3], 69.5 µM; in test [4], more than 100 µM; in test [5], more than 100 µM; in test [6], 41.6 µM. In addition, the TGI in test [7] is more than 100 µM; in test [8], more than 100 µM; in [9], more than 100 µM; in [10] it was 25.5 µM.

As for `Cn1c2c(c3c(Cl)nncc31)Cc1ccccc1-2`, the GI50 was 24.9 µM in [1]; 17.9 µM in test [2]; 25.1 µM in test [3]; 31.8 µM in test [4]; 25.9 µM in test [5]; 28.6 µM in test [6]. Moreover, the GI50 in [7] is 20.9 µM; in test [8], 6.4 µM; in [9] it was 25.2 µM; in test [10] it was 10.3 µM. The TGI is 85.6 µM in test [1]; more than 100 µM in test [2]; 59.9 µM in test [3]; more than 100 µM in test [4]; more than 100 µM in [5]; 75.1 µM in [6]. Further, the TGI is more than 100 µM in test [7], 41 µM in test [8], more than 100 µM in [9] and 24.9 µM in test [10].

`CCOC(=O)C(C#N)C1=CC(=O)C(=O)c2ccc(O)cc21` (centres undefined): the TGI in [1], in [2], in [3], in test [4], in test [5] and in test [6] was more than 100 µM throughout. Moreover, the TGI in test [7], in test [8], in test [9] and in test [10] was more than 100 µM throughout.

Turning to `CCc1nc2ccc(N=Nc3c(O)ccc4ccccc34)cc2[nH]1`, the TGI was 33.6 µM in test [1]; 30.8 µM in test [2]; 50.3 µM in test [3]; 37.5 µM in test [4]; 53.3 µM in test [5]; more than 62 µM in test [6]. The TGI worked out at 29.7 µM in [7], 31.2 µM in test [8], 43.6 µM in [9] and 40 µM in test [10].

For the compound `CN1CCN(C(=O)COc2ccc(/C=C3\CC4C5CC=C6CC(Cl)CCC6(C)C5CCC4(C)C3=O)cc2)CC1` (centres undefined), the GI50 in test [1] was more than 100 µM; in [2], 3.08 µM; in [3], more than 100 µM; in test [4], more than 100 µM; in [5] it was more than 100 µM; in test [6], more than 100 µM. In addition, the results for the GI50 in test [7], in [8] and in [9] were more than 100 µM, more than 100 µM and 36.4 µM, respectively. Also, the TGI in test [1], in test [2], in [3], in test [4], in test [5] and in test [6] was more than 100 µM in each case. Moreover, the TGI in test [7], in [8] and in [9] was more than 100 µM each time.

Turning to `Cn1c2c(c3ccccc31)CCN1C(=O)CCC21` (centres undefined), the TGI in test [1], in test [3], in test [4], in [5], in [6] and in test [7] was more than 10 µM in each case. The TGI in test [8], in [9] and in [10] was more than 10 µM in each case.

Source of the values: PubChem BioAssay (NCI).
